From patent US11413278B2, “Compounds and methods for promoting stress resistance” (priority 2015, dated 2022)
Where two headings read alike, the source gives them in different places.

Experiments:
WI-38 cells [1] = test: Propidium iodide (PI) cell-death imaging upon H2O2 stress; type: cell-based, human; conditions: for Assay 7: H2O2-resistant, at 10 uM, validated by propidium iodide (PI) cell-death imaging: w/H2O2, 3 hrs/4 hrs/5 hrs, YES/NO; for cytotoxicity at 10 µM: Homo sapiens, WI-38
human PARP1 = target: T1, human PARP1 (Homo sapiens, UniProt P09874); test: PARP inhibitor assay (HT Fluorescent Homogeneous PARP Inhibition Assay Kit); type: biochemical; conditions: score
T1 construct: purchased Trevigen
T1 sequence (P09874 whole entry): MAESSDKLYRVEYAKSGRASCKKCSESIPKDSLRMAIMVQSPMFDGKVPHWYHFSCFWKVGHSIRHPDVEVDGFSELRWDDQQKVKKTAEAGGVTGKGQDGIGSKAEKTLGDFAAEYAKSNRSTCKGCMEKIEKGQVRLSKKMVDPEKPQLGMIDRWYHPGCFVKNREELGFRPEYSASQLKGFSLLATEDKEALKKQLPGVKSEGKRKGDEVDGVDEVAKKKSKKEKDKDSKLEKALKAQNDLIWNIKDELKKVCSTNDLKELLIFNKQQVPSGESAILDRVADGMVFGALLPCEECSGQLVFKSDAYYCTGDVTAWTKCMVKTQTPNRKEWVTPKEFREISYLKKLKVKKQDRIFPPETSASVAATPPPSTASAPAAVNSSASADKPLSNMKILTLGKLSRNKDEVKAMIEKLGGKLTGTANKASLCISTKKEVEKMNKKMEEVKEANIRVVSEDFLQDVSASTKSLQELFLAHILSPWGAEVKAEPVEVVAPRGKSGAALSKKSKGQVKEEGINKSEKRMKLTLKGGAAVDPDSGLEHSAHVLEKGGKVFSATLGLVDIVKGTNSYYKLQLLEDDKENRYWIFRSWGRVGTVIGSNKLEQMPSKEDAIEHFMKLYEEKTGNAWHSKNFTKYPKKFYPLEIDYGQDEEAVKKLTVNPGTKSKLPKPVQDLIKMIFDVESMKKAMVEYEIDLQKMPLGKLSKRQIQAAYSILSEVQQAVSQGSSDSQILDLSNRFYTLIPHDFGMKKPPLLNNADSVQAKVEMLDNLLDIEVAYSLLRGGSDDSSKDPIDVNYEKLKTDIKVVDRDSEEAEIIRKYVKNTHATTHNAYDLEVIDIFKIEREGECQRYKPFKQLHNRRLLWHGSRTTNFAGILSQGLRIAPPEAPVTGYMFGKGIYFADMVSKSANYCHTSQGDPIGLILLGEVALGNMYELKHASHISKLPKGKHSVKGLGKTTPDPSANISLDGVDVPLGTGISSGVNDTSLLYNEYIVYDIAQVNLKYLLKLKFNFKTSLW
In short: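 Compounds (10 μM final) incubated 30 min, room temperature, dark, with human PARP1, nicotinamide adenine dinucleotide and activated DNA. Fluorescent signal generated by 1 hr cycling with diaphorase and resazurin, then reaction stopped.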

WI-38 cells [2] = test: CdCl2 (cadmium) resistance assay; type: cell-based, human; conditions: for fold induction at 10 µM: Homo sapiens, 12 h, normalized ATP measurement; for Assay 4: H2O2- & Cd-resistant / Assay 2: Cadmium-resistant: YES/NO; for Assay 2: Cadmium-resistant: * indicates partial
In short: (§1)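 Resistance to CdCl2 or MMS stress (12 h exposure) was scored in WI-38 fibroblasts pretreated with compound at 0.25–20 μM final, five doses, technical triplicates. MMS plates had compound added 24 h before MMS, after a shift to serum-free DMEM+2% BSA. Significance came from a global variance t-test over two independent runs.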

WI-38 cells [3] = test: MMS resistance assay; type: cell-based, human; conditions: for fold induction at 10 µM: Homo sapiens, 12 h, normalized ATP measurement; for Assay 3: MMS-resistant / Assay 5: Triple resistant: YES/NO; for Assay 3: MMS-resistant: * indicates partial; for Assay 5: Triple resistant: H2O2, cadmium and MMS
In short: as §1

[4] = system: human dermal fibroblast (HDF) primary cells; test: H2O2-resistance in primary human dermal fibroblasts; type: cell-based; conditions: for fold induction at 10 µM: Homo sapiens; for Assay 6: H2O2-resistant, at 10 uM, human dermal fibroblast (HDF) primary cells: YES/NO
[5] = system: PC12 cells expressing poly(Q)103-Htt-EGFP; test: Poly(Q) toxicity & viability analysis (cellular model of Huntington's disease); type: cell-based, rat; conditions: for M = Huntington's poly-Q toxicity attenuation: score; for K = Huntington's poly-Q toxicity attenuation: summary score
In short: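 Readout is CellTiter-Glo ATP content measured after 48 hrs. Cells are a PC12 line stably expressing inducible poly(Q)103-Htt-EGFP, where induction produces toxic aggregates.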

WI-38 cells [6] = conditions: for Percentage of propidium iodide-positive dead cells (no H2O2 stress treatment), at 10 uM: negative control 0.41% ± 0.23%; for PI cell-death imaging without H2O2 (indicating potential toxicity): Assay 8(k), without H2O2, at 10 uM; for PI-positive dead cells under normal conditions: control 0.4±0.2%
Procedure: WI-38 cells were seeded on 384-well plates for 24 hrs and then incubated with small molecules for 24 hrs. […] Images were collected on an INCell Analyzer 2000 (GE) and analyzed with the Developer software.

[7] = Summary score for characterization of 38 core set hits; conditions: for D = Triple resistant: 2-point score, multiplex resistance (cadmium, MMS, H2O2); for C = H2O2- & Cd-resistant: score, resistance to both H2O2 and cadmium
In short: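 Each score sums results of individual assays on H2O2-resistance screen hits. Nematode lifespan assays were run in 4 to 6 independent trials and scored up to 2. Key phenotypes such as multiplex resistance, FOXO3/NRF2 activation and mTOR down-regulation were weighted at 2 points, with a deduction for human-cell toxicity.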

[8] = H2O2 3 hrs, 10 uM, n = 6, negative control 5.44% ± 0.79%, read-out: Percentage of propidium iodide-positive dead cells (under H2O2 stress treatment), 3 hrs
[9] = pre-treatment at 10 uM, 3.5 hours of H2O2, DMSO control 27.4% ± 6.5%, */**/*** = reduced by one/two/three standard deviations, read-out: Percentage of propidium iodide-positive dead cells (under H2O2 stress treatment), at 10 uM
[10] = Exp. 1, WI-38 cells, read-out: Exp. 1, under Cd2Cl2 stress treatment, at 10 uM (fold change)
[11] = Exp. 2, WI-38 cells, read-out: Exp. 2, under Cd2Cl2 stress treatment, at 10 uM (fold change)
[12] = WI-38 cells, 10 μM, both stressors
[13] = score in summary of 38 core set hits
[14] = Exp. 1, WI-38 cells, read-out: Exp. 1, under MMS stress treatment, at 10 uM (fold change)
[15] = Exp. 2, WI-38 cells, read-out: Exp. 2, under MMS stress treatment, at 10 uM (fold change)
[16] = Experiment 1, HDF cells, read-out: Experiment 1, HDF cells (under H2O2 stress treatment), at 10 uM (fold change)
[17] = Experiment 2, HDF cells, read-out: Experiment 2, HDF cells (under H2O2 stress treatment), at 10 uM (fold change)
[18] = H2O2 4 hrs, 10 uM, n = 6, negative control 16.81% ± 1.42%, read-out: Percentage of propidium iodide-positive dead cells (under H2O2 stress treatment), 4 hrs

| Structure (SMILES) | Assay 7: H2O2-resistant, at 10 uM, validated by propidium iodide (PI) cell-death imaging (WI-38 cells [1]; 10 uM) | cytotoxicity at 10 µM (WI-38 cells [1]; [8]) [%] | cytotoxicity at 10 µM (WI-38 cells [1]; [9]) [%] | L = PARP inhibition (human PARP1) | fold induction at 10 µM (WI-38 cells [2]; [10]) | fold induction at 10 µM (WI-38 cells [2]; [11]) | Assay 4: H2O2- & Cd-resistant (WI-38 cells [2]) | Assay 2: Cadmium-resistant (WI-38 cells [2]) | A = Cadmium resistant (WI-38 cells [2]; [13]) | A = Cadmium resistant (WI-38 cells [2]; summary score) | C = H2O2- & Cd-resistant (WI-38 cells [2]; summary score) | fold induction at 10 µM (WI-38 cells [3]; [14]) | fold induction at 10 µM (WI-38 cells [3]; [15]) | B = MMS resistant (WI-38 cells [3]; [13]) | B = MMS resistant (WI-38 cells [3]; summary score) | D = Triple resistant (WI-38 cells [3]; summary score) | fold induction at 10 µM [4, 16] | fold induction at 10 µM [4, 17] | M = Huntington's poly-Q toxicity attenuation [5] | K = Huntington's poly-Q toxicity attenuation [5] | further results |
| --- | --- | --- | --- | --- | --- | --- | --- | --- | --- | --- | --- | --- | --- | --- | --- | --- | --- | --- | --- | --- | --- |
| COc1ccc(C(=O)/C=C/c2ccc(F)cc2)c(OC)c1 [Gr-4A] | YES | 1.87 | 1.9 | 0 | 1.98 | 1.66 | YES | YES | 1 | 1 | 1 | 0.95 | 1.52 | 0 | 0 | 0 | 7.16 | 2.35 | 0 | 0 | CdCl2-resistant (WI-38 cells [2]): YES; H2O2- & CdCl2-resistant (WI-38 cells [2]): YES; CdCl2-resistant (WI-38 cells [2]; WI-38 cells, 10 μM): YES; H2O2- & CdCl2-resistant (WI-38 cells [2]; [12]): YES; Assay 6: H2O2-resistant, at 10 uM, human dermal fibroblast (HDF) primary cells [4]: YES; Percentage of propidium iodide-positive dead cells (no H2O2 stress treatment), at 10 uM (WI-38 cells [6]): 0.39% ± 0.14%,; D = Triple resistant [7]: 0; C = H2O2- & Cd-resistant [7]: 1; S = Sum of Negative scores ([7]; sum of columns Q and R): 0 |
| Cc1cc(C)c(C(=O)/C=C/c2ccccc2F)c(O)n1 [O18] | YES | 3.66 | 4.5 | 0 | 1.5 | 1.24 | YES | YES | 0 | 1 | 1 | 1.11 | 1.48 | 0 | 1 | 2 | 72.5 | 1.27 | 0 | 0 | cytotoxicity at 10 µM (WI-38 cells [1]; [18]): 3.06%; cytotoxicity at 10 µM (WI-38 cells [1]; H2O2 5 hrs, 10 uM, n = 6, negative control 22.50% ± 1.53%, read-out: Percentage of propidium iodide-positive dead cells (under H2O2 stress treatment), 5 hrs): 4.16%; Assay 3: MMS-resistant (WI-38 cells [3]): YES; Assay 5: Triple resistant (WI-38 cells [3]): YES; Percentage of propidium iodide-positive dead cells (no H2O2 stress treatment), at 10 uM (WI-38 cells [6]): 0.36% ± 0.16%,; D = Triple resistant [7]: 0; S = Sum of Negative scores ([7]; human): 0; C = H2O2- & Cd-resistant [7]: 0 |
| COC(=O)CCc1sc2c(c1[N+](=O)[O-])NC(=O)CCC2 [O20] | YES | 3.28 | 9.4 | 0 | 6.37 | 4 | YES | YES | 1 | 1 | 1 | 2.17 | 1.46 | 0 | 1 | 2 | 1.08 | 63.9 | 0 | 0 | CdCl2-resistant (WI-38 cells [2]): YES; H2O2- & CdCl2-resistant (WI-38 cells [2]): YES; CdCl2-resistant (WI-38 cells [2]; WI-38 cells, 10 μM): YES; H2O2- & CdCl2-resistant (WI-38 cells [2]; [12]): YES; Assay 3: MMS-resistant (WI-38 cells [3]): YES; Assay 5: Triple resistant (WI-38 cells [3]): YES; Assay 6: H2O2-resistant, at 10 uM, human dermal fibroblast (HDF) primary cells [4]: YES; PI cell-death imaging without H2O2 (indicating potential toxicity) (WI-38 cells [6]): YES; PI-positive dead cells under normal conditions (WI-38 cells [6]; WI-38, no H2O2): 0.7%±0.3%; Percentage of propidium iodide-positive dead cells (no H2O2 stress treatment), at 10 uM (WI-38 cells [6]): 0.73% ± 0.25%,; D = Triple resistant [7]: 0; S = Sum of Negative scores ([7]; human): 0; C = H2O2- & Cd-resistant [7]: 1 |
| O=C(Nc1cccc(Cl)c1)c1ccc([N+](=O)[O-])o1 [Gr-1D] | YES | 6.27 | 36.7 | 0 | 3.14 | 3.84 | YES | YES | 1 | 1 | 1 | 1.16 | 2.31 | 0 | 1 | 2 | 2.79 | 49.3 | 0 | 0 | cytotoxicity at 10 µM (WI-38 cells [1]; [18]): 5.83%; CdCl2-resistant (WI-38 cells [2]): YES; H2O2- & CdCl2-resistant (WI-38 cells [2]): YES; CdCl2-resistant (WI-38 cells [2]; WI-38 cells, 10 μM): YES; H2O2- & CdCl2-resistant (WI-38 cells [2]; [12]): YES; Assay 3: MMS-resistant (WI-38 cells [3]): YES; Assay 5: Triple resistant (WI-38 cells [3]): YES; Assay 6: H2O2-resistant, at 10 uM, human dermal fibroblast (HDF) primary cells [4]: YES; PI cell-death imaging without H2O2 (indicating potential toxicity) (WI-38 cells [6]): YES; Percentage of propidium iodide-positive (dead) cells under normal conditions (qualitative) (WI-38 cells [6]; WI-38, no H2O2): increased the percentage; PI-positive dead cells under normal conditions (WI-38 cells [6]; WI-38, no H2O2): 4.2±1.4%; Percentage of propidium iodide-positive dead cells (no H2O2 stress treatment), at 10 uM (WI-38 cells [6]): 4.16% ± 1.39%,; D = Triple resistant [7]: 0; S = Sum of Negative scores ([7]; human): 1; C = H2O2- & Cd-resistant [7]: 1 |
